Source: US4173539A, “Cationic surfactant compositions” (Lever Brothers Company, priority 1977, dated 1979)
Where “and” joins values, the source holds several entries; their conditions need not be identical. Equal values may be shown once.

How the values were obtained:
[1] = Krafft point (Kp) determination; assay type: physicochemical; conditions: aqueous dispersion containing 2% by weight, temperature at which it becomes cloudy on cooling
Method: A composition of uniform turbidity can be recognised simply by visual observation of a sample which has been placed in a test tube and allowed to stand for 24 hours at ambient temperature. […] The melting point of particles of softening agent can be determined by placing in a hot stage microscope a sample of composition on a glass slide covered by a glass cover slip and observing the temperature at which melting of the particle occurs as a change in shape of the particles indicating deformation of liquid droplets when the cover slip is moved over the slide. The Krafft point (Kp) of the quaternary ammonium chloride can be determined by heating an aqueous dispersion containing 2% by weight of it to a temperature at which a transparent solution is obtained, cooling it, and observing the temperature at which it becomes cloudy. The clear point of the composition can be determined by heating a sample to 95° C.: lack of optical clarity at this temperature is taken as showing that the clear point is above 95° C.

[2] = Effective normality ratio range of quaternary ammonium salt to anionic surfactant for stable dispersions; assay type: physicochemical
Excerpt: The ranges of figures in the table are the ranges of normality ratios expressed as quaternary ammonium salt to 1 of anionic surfactant.
There is no specific disclosure of the preparation of aqueous liquid concentrates in these prior publications of stable dispersions containing positively charged particles of quaternary ammonium softeners with single long-chain groups, and to prepare these it is necessary both to select a normality ratio within the operative range for the particular quaternary ammonium salt and anionic surfactant concerned and to employ a method of formulation which gives a homogeneous liquid phase before generating the complex-containing softener particles.

| Krafft point (Kp) [1] | Krafft point (Kp) ([1]; listed as behenoyl-hydroxypropyltrimethylammonium chloride of Preparation I) | effective normality ratio range, quaternary ammonium salt to 1 of anionic surfactant ([2]; anionic surfactant: Sodium stearate) | Structure (SMILES) | effective normality ratio range, quaternary ammonium salt to 1 of anionic surfactant ([2]; anionic surfactant: Sodium C15-C18 olefin sulphonate) | effective normality ratio range, quaternary ammonium salt to 1 of anionic surfactant ([2]; anionic surfactant: Sodium linear C10-C15 alkylbenzene sulphonate) | effective normality ratio range, quaternary ammonium salt to 1 of anionic surfactant ([2]; anionic surfactant: Sodium random secondary C13-C17 alkane sulphonate) | effective normality ratio range, quaternary ammonium salt to 1 of anionic surfactant ([2]; anionic surfactant: Sodium soap of tallow fatty acids) |
| --- | --- | --- | --- | --- | --- | --- | --- |
| 54 °C and 58 °C | 58 °C | 1.2-3.0 | CCCCCCCCCCCCCCCCCCCCCC(=O)OCC(O)C[N+](C)(C)C.[Cl-] (stereo not shown) [3-behenoyloxy-2-hydroxypropyl trimethylammonium chloride] | – | – | – | – |
| 60 °C | – | – | CCCCCCCCCCCCCCCCCCCCCC(=O)NCCC[N+](C)(C)C.[Cl-] [behenoylaminopropyl trimethylammonium chloride] | – | – | – | – |
| 16 °C | – | – | CCCCCCCCCCCCCCCC[N+](C)(C)Cc1ccccc1.[Cl-] [cetylbenzyldimethylammonium chloride] | – | – | – | – |

| Structure (SMILES) | Krafft point (Kp) [1] | Krafft point (Kp) ([1]; listed as behenoyl-hydroxypropyltrimethylammonium chloride of Preparation I) | effective normality ratio range, quaternary ammonium salt to 1 of anionic surfactant ([2]; anionic surfactant: Sodium stearate) | effective normality ratio range, quaternary ammonium salt to 1 of anionic surfactant ([2]; anionic surfactant: Sodium C15-C18 olefin sulphonate) | effective normality ratio range, quaternary ammonium salt to 1 of anionic surfactant ([2]; anionic surfactant: Sodium linear C10-C15 alkylbenzene sulphonate) | effective normality ratio range, quaternary ammonium salt to 1 of anionic surfactant ([2]; anionic surfactant: Sodium random secondary C13-C17 alkane sulphonate) | effective normality ratio range, quaternary ammonium salt to 1 of anionic surfactant ([2]; anionic surfactant: Sodium soap of tallow fatty acids) |
| --- | --- | --- | --- | --- | --- | --- | --- |
| CCCCCCCCCCCCCCCCCC[N+](C)(C)C.[Cl-] [stearyltrimethylammonium chloride] | 11 °C | – | – | 1.4-1.8 | 1.5-3.0 | 1.3-2.0 | 1.1-1.6 |
